Results on three molecules are retold here after BindingDB's records for doi:10.1021/jm800043g (Amgen, 2008).

The target in the experiment is Hepatocyte growth factor receptor (Homo sapiens, UniProt P08581). The experiment can be described thus: HTRF Kinase Inhibition Assay. To be noted: pH 7.4; 22 °C. Here is the method:
In vitro kinase assays were done to establish IC50 values against recombinant enzymes using homogeneous time-resolved fluorescence (HTRF) assay. Molecules were tested in a 10-point serial dilution using an ATP concentration of two thirds Km values that were determined for the enzymes and calculated using the Eadie-Hofstee and Lineweaver-Burke methods. The fluorescence ratios were read on a Rubystar instrument (BMG labtech Inc.).
In general terms: Time-resolved FRET reads energy transfer from a long-lived donor to a nearby acceptor.

As a reminder, the IC50 is the point on the concentration scale where inhibition reaches its midpoint. `COc1ccc2c(OCc3nnc4ccc(-c5cc(C)cs5)nn34)ccnc2c1` [7-methoxy-4-{[6-(4-methylthiophen-2-yl)-[1,2,4]triazolo[4,3-a]pyridazin-3-yl]methoxy}quinoline] displayed an IC50 of 1 nM. This counts as single-digit nanomolar.
`COc1ccc2c(OCc3nnc4ccc(-c5ccsc5)nn34)ccnc2c1` [7-methoxy-4-{[6-(thiophen-3-yl)-[1,2,4]triazolo[4,3-a]pyridazin-3-yl]methoxy}quinoline] returned an IC50 of 4 nM.
`COc1ccc2c(OCc3nnc4ccc(-c5cccs5)nn34)ccnc2c1` [7-methoxy-4-{[6-(thiophen-2-yl)-[1,2,4]triazolo[4,3-a]pyridazin-3-yl]methoxy}quinoline] showed an IC50 of 2 nM.
